From patent US8092816B2, “Insecticidal compositions for control of general household pests” (priority 2004, dated 2012)

Experiments:
House Fly [1] = test: Example 7: house fly knockdown and mortality, bifenthrin and imidacloprid; format: in vivo
Text: (§1) The following examples further illustrate the present invention, but, of course, should not be construed as in any way limiting its scope. The examples set forth certain biological data illustrating the efficacy of the compositions of the present invention in controlling general household pests. Each example embodies a separate test wherein the pests were randomly selected from a population at a random age. As a result, from example to example, the ages of the pests can be very different. This age difference potentially translates to different baselines for each example. Therefore, data should only be compared within the example and not from example to example due to the differences in age of the pests from example to example. Unless otherwise indicated, all parts, percentages, and the like are by weight. The spray chamber used in the examples was approximately 76 inches tall, 73 inches long and 31 inches deep with an adjustable shelf (approximately 22 inches deep) and a movable spray nozzle. The spray chambers were calibrated to deliver a volume of approximately 1 gallon of liquid per 1000 square feet of area at about 14 pounds per square inch of pressure. A DeVilbiss hand held sprayer (Atomizer model 152) manufactured by DeVilbiss located in Glendale Heights, Ill. was used in testing house flies and mosquitoes. The DeVilbiss was used to apply approximately 3-5 milliliters of product at about 10 pounds per square inch.
(§2) The compositions of the present invention were tested for house fly activity in the following manner:
(§3) Test compositions made up of TALSTARONE® MULTI-INSECTICIDE and a wettable powder of imidacloprid (MERIT) in distilled water were prepared that provided appropriate rates of application of combinations of bifenthrin and imidacloprid, as well as bifenthrin and imidacloprid alone.
(§4) A DeVilbiss hand held sprayer was used to deliver the treatment solution at the desired volume and pressure. The house flies to be treated were collected and placed in screened 16 oz paper cups. The hand held sprayer was activated and the test compound was applied to each paper cup interior. House fly knockdown and mortality were measured.

Oriental cockroach [2] = test: Example 10: Oriental cockroach knockdown and mortality, bifenthrin and thiamethoxam; format: in vivo
Text: as §1
(§5) The compositions of the present invention were tested for Oriental cockroach activity in the following manner:
(§6) Test compositions made up of TALSTARONE® MULTI-INSECTICIDE and a water dispersible granular of thiamethoxam (CENTRIC) in distilled water were prepared that provided appropriate rates of application of combinations of bifenthrin and thiamethoxam, as well as bifenthrin and thiamethoxam alone.
(§7) The spray chamber was then calibrated to deliver the treatment solution at the desired volume and pressure over the desired area on the chamber shelf. Spray chamber shelf height was adjusted to approximately 18 inches from the spray tip. The shelf was then covered with aluminum foil and the center of the shelf from front-to-back and end-to-end was determined. A desired number of 4.0″ sieve circles were marked on the aluminum foil with a permanent marker. The inside of a desired number of PVC rings were coated with a petroleum jelly/mineral oil mixture (1:2 ratio). The PVC rings were place on the sieve circles. 10 male Oriental cockroaches were placed inside each PVC ring. The sprayer was activated and the test compound was applied to each PVC ring interior. Oriental cockroach knockdown and mortality were measured.

House Fly [3] = test: Example 11: house fly knockdown and mortality, bifenthrin and thiamethoxam; format: in vivo
Text: as §1, §2, §6, §4

Red Imported Fire Ant = test: Example 5: red imported fire ant knockdown and mortality, bifenthrin and imidacloprid; format: in vivo, Solenopsis invicta
Text: as §1
The compositions of the present invention were tested for red imported fire ant activity in the following manner:
as §3
The spray chamber was then calibrated to deliver the treatment solution at the desired volume and pressure over the desired area on the chamber shelf. Spray chamber shelf height was adjusted to approximately 18 inches from the spray tip. The shelf was then covered with aluminum foil and the center of the shelf from front-to-back and end-to-end was determined. The red imported fire ants to be treated were collected and placed in screened 16 oz paper cups. The paper cups were placed onto the aluminum foil on the spray chamber shelf. The sprayer was activated and the test compound was applied to each paper cup interior. Red imported fire ant knockdown and mortality were measured.

Oriental cockroach [4] = test: Example 4: Oriental cockroach knockdown and mortality, bifenthrin and imidacloprid; format: in vivo
Text: as §1, §5, §3, §7

SMILES: Cc1c(COC(=O)[C@@H]2[C@H](/C=C(\Cl)C(F)(F)F)C2(C)C)cccc1-c1ccccc1 (racemic) [A, 2-methylbiphenyl-3-ylmethyl (Z)-(1RS)-cis-3-(2-chloro-3,3,3-trifluoroprop-1-enyl)-2,2-dimethylcyclopropanecarboxylate]
- Knockdown Rate @ 15 minute (House Fly [1]; 10 PPM, 0.001% by weight): 0%
- Knockdown Rate @ 30 minute (House Fly [1]; 10 PPM, 0.001% by weight): 0%
- Knockdown Rate @ 45 minutes (House Fly [1]; 10 PPM, 0.001% by weight): 17%
- Knockdown Rate @ 60 minutes (House Fly [1]; 10 PPM, 0.001% by weight): 40%
- Knockdown Rate @ 120 minutes (House Fly [1]; 10 PPM, 0.001% by weight): 63%
- Knockdown Rate @ 4 hours (House Fly [1]; 10 PPM, 0.001% by weight): 50%
- Mortality Rate @ 1 day (House Fly [1]; 10 PPM, 0.001% by weight): 30%
- Knockdown Rate @ 15 minute (House Fly [1]; 50 PPM, 0.005% by weight): 0%
- Knockdown Rate @ 30 minute (House Fly [1]; 50 PPM, 0.005% by weight): 78%
- Knockdown Rate @ 45 minutes (House Fly [1]; 50 PPM, 0.005% by weight): 97%
- Knockdown Rate @ 60 minutes (House Fly [1]; 50 PPM, 0.005% by weight): 97%
- Knockdown Rate @ 120 minutes (House Fly [1]; 50 PPM, 0.005% by weight): 97%
- Knockdown Rate @ 4 hours (House Fly [1]; 50 PPM, 0.005% by weight): 97%
- Mortality Rate @ 1 day (House Fly [1]; 50 PPM, 0.005% by weight): 97%
- Knockdown Rate @ 15 minute (Oriental cockroach [2]; 10 PPM, 0.001% by weight): 0%
- Knockdown Rate @ 30 minute (Oriental cockroach [2]; 10 PPM, 0.001% by weight): 0%
- Mortality Rate @ 60 minutes (Oriental cockroach [2]; 10 PPM, 0.001% by weight): 0%
- Mortality Rate @ 120 minutes (Oriental cockroach [2]; 10 PPM, 0.001% by weight): 0%
- Mortality Rate @ 4 hours (Oriental cockroach [2]; 10 PPM, 0.001% by weight): 0%
- Mortality Rate @ 1 day (Oriental cockroach [2]; 10 PPM, 0.001% by weight): 0%
- Knockdown Rate @ 15 minute (Oriental cockroach [2]; 50 PPM, 0.005% by weight): 0%
- Knockdown Rate @ 30 minute (Oriental cockroach [2]; 50 PPM, 0.005% by weight): 0%
- Mortality Rate @ 60 minutes (Oriental cockroach [2]; 50 PPM, 0.005% by weight): 0%
- Mortality Rate @ 120 minutes (Oriental cockroach [2]; 50 PPM, 0.005% by weight): 0%
- Mortality Rate @ 4 hours (Oriental cockroach [2]; 50 PPM, 0.005% by weight): 0%
- Mortality Rate @ 1 day (Oriental cockroach [2]; 50 PPM, 0.005% by weight): 45%
- Knockdown Rate @ 15 minute (House Fly [3]; A 10 PPM, 0.001% by weight): 0%
- Knockdown Rate @ 30 minute (House Fly [3]; A 10 PPM, 0.001% by weight): 0%
- Knockdown Rate @ 45 minutes (House Fly [3]; A 10 PPM, 0.001% by weight): 6%
- Knockdown Rate @ 60 minutes (House Fly [3]; A 10 PPM, 0.001% by weight): 19%
- Knockdown Rate @ 120 minutes (House Fly [3]; A 10 PPM, 0.001% by weight): 19%
- Knockdown Rate @ 4 hours (House Fly [3]; A 10 PPM, 0.001% by weight): 48%
- Mortality Rate @ 1 day (House Fly [3]; A 10 PPM, 0.001% by weight): 3%
- Knockdown Rate @ 15 minute (House Fly [3]; A 50 PPM, 0.005% by weight): 0%
- Knockdown Rate @ 30 minute (House Fly [3]; A 50 PPM, 0.005% by weight): 19%
- Knockdown Rate @ 45 minutes (House Fly [3]; A 50 PPM, 0.005% by weight): 47%
- Knockdown Rate @ 60 minutes (House Fly [3]; A 50 PPM, 0.005% by weight): 59%
- Knockdown Rate @ 120 minutes (House Fly [3]; A 50 PPM, 0.005% by weight): 63%
- Knockdown Rate @ 4 hours (House Fly [3]; A 50 PPM, 0.005% by weight): 100%
- Mortality Rate @ 1 day (House Fly [3]; A 50 PPM, 0.005% by weight): 63%
- Knockdown Rate @ 5 minute (Red Imported Fire Ant; 10 PPM, 0.001% by weight): 30%
- Knockdown Rate @ 10 minute (Red Imported Fire Ant; 10 PPM, 0.001% by weight): 93%
- Knockdown Rate @ 15 minute (Red Imported Fire Ant; 10 PPM, 0.001% by weight): 95%
- Knockdown Rate @ 30 minutes (Red Imported Fire Ant; 10 PPM, 0.001% by weight): 100%
- Mortality Rate @ 60 minutes (Red Imported Fire Ant; 10 PPM, 0.001% by weight): 65%
- Mortality Rate @ 120 minutes (Red Imported Fire Ant; 10 PPM, 0.001% by weight): 100%
- Mortality Rate @ 4 hours (Red Imported Fire Ant; 10 PPM, 0.001% by weight): 100%
- Mortality Rate @ 1 day (Red Imported Fire Ant; 10 PPM, 0.001% by weight): 100%
- Knockdown Rate @ 5 minute (Red Imported Fire Ant; 50 PPM, 0.005% by weight): 10%
- Knockdown Rate @ 10 minute (Red Imported Fire Ant; 50 PPM, 0.005% by weight): 70%
- Knockdown Rate @ 15 minute (Red Imported Fire Ant; 50 PPM, 0.005% by weight): 95%
- Knockdown Rate @ 30 minutes (Red Imported Fire Ant; 50 PPM, 0.005% by weight): 100%
- Mortality Rate @ 60 minutes (Red Imported Fire Ant; 50 PPM, 0.005% by weight): 100%
- Mortality Rate @ 120 minutes (Red Imported Fire Ant; 50 PPM, 0.005% by weight): 100%
- Mortality Rate @ 4 hours (Red Imported Fire Ant; 50 PPM, 0.005% by weight): 100%
- Mortality Rate @ 1 day (Red Imported Fire Ant; 50 PPM, 0.005% by weight): 100%
- Knockdown Rate @ 15 minute (Oriental cockroach [4]; 10 PPM, 0.001% by weight): 0%
- Knockdown Rate @ 30 minute (Oriental cockroach [4]; 10 PPM, 0.001% by weight): 0%
- Mortality Rate @ 60 minute (Oriental cockroach [4]; 10 PPM, 0.001% by weight): 0%
- Mortality Rate @ 120 minute (Oriental cockroach [4]; 10 PPM, 0.001% by weight): 0%
- Mortality Rate @ 4 hours (Oriental cockroach [4]; 10 PPM, 0.001% by weight): 0%
- Mortality Rate @ 1 day (Oriental cockroach [4]; 10 PPM, 0.001% by weight): 15%
- Mortality Rate @ 2 days (Oriental cockroach [4]; 10 PPM, 0.001% by weight): 15%
- Knockdown Rate @ 15 minute (Oriental cockroach [4]; 50 PPM, 0.005% by weight): 0%
- Knockdown Rate @ 30 minute (Oriental cockroach [4]; 50 PPM, 0.005% by weight): 0%
- Mortality Rate @ 60 minute (Oriental cockroach [4]; 50 PPM, 0.005% by weight): 5%
- Mortality Rate @ 120 minute (Oriental cockroach [4]; 50 PPM, 0.005% by weight): 5%
- Mortality Rate @ 4 hours (Oriental cockroach [4]; 50 PPM, 0.005% by weight): 30%
- Mortality Rate @ 1 day (Oriental cockroach [4]; 50 PPM, 0.005% by weight): 70%
- Mortality Rate @ 2 days (Oriental cockroach [4]; 50 PPM, 0.005% by weight): 70%
